Consider five compounds from PubChem BioAssay AID2060501 (Molecular Pharmacology Branch, DTP, NCI, 2025).

Structures are written as SMILES.
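Note: spheroids exposed to compounds for 7 days before readout; percent of vehicle DMSO control viability with 100% = untreated-like growth.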

For the first assay, the system named is 282377-053-R-J1-PDC complex spheroids, viability. Briefly: Anticancer human tumor 282377-053-R-J1-PDC patient-derived colon adenocarcinoma cell line growth inhibition [GQUAD]. The conditions noted are these: second compound 0.316 µM; first compound 1 µM; hits give low values. A digest of the protocol: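 Tumor cells were grown as complex spheroids with HUVEC endothelial cells and mesenchymal stem cells as stroma. G-quadruplex stabilizers were combined with targeted agents over half-log dilutions from near the clinical Cmax, or from 10 microM.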
What is called viability, T/C is the ratio of treated to control. For the compound `C=CCn1c(=O)c2cnc(Nc3ccc(N4CCN(C)CC4)cc3)nc2n1-c1cccc(C(C)(C)O)n1` + CN(C)c1ccc(Nc2c3ccc(NC(=O)CCN4CCCC4)cc3nc3cc(NC(=O)CCN4CCCC4)ccc23)cc1, the viability, T/C is 90.1%.

On to `CC(C)(O)C1CCC(Nc2ccc3ncc(-c4cccc(C(F)(F)F)c4)n3n2)CC1` (stereo unspecified) + CN(C)c1ccc(Nc2c3ccc(NC(=O)CCN4CCCC4)cc3nc3cc(NC(=O)CCN4CCCC4)ccc23)cc1, for which the viability, T/C is 86.5%.

Turning to `COc1ncnc(C2CC2)c1-c1ncc2cnn(Cc3ccc(-c4nc(C(F)(F)F)cn4C(C)C)cc3)c2n1` + CN(C)c1ccc(Nc2c3ccc(NC(=O)CCN4CCCC4)cc3nc3cc(NC(=O)CCN4CCCC4)ccc23)cc1, the viability, T/C is 78.5%.

On to `CC1COCCN1c1cc(C2(S(C)(=N)=O)CC2)nc(-c2ccnc3[nH]ccc23)n1` (stereo unspecified) + Cc1[nH]c2ccc(F)cc2c1-c1nc2c3cccnc3c3ncccc3c2[nH]1, for which the viability, T/C is 69.5%.

For `COc1ccc([C@@H](O)c2cc(-c3ncnc4cc(N5CCOCC5)ccc34)c(F)cc2Cl)nn1` + Cc1[nH]c2ccc(F)cc2c1-c1nc2c3cccnc3c3ncccc3c2[nH]1, the viability, T/C was 93.7%.

Still in this assay, the particulars now being: second compound 0.316 µM; first compound 3.16 µM; hits give low values.
Turning to `C=CCn1c(=O)c2cnc(Nc3ccc(N4CCN(C)CC4)cc3)nc2n1-c1cccc(C(C)(C)O)n1` + CN(C)c1ccc(Nc2c3ccc(NC(=O)CCN4CCCC4)cc3nc3cc(NC(=O)CCN4CCCC4)ccc23)cc1, the viability, T/C is 26.5%.

As to `CC(C)(O)C1CCC(Nc2ccc3ncc(-c4cccc(C(F)(F)F)c4)n3n2)CC1` (stereo unspecified) + CN(C)c1ccc(Nc2c3ccc(NC(=O)CCN4CCCC4)cc3nc3cc(NC(=O)CCN4CCCC4)ccc23)cc1, the viability, T/C was 22.2%.

In the case of `COc1ncnc(C2CC2)c1-c1ncc2cnn(Cc3ccc(-c4nc(C(F)(F)F)cn4C(C)C)cc3)c2n1` + CN(C)c1ccc(Nc2c3ccc(NC(=O)CCN4CCCC4)cc3nc3cc(NC(=O)CCN4CCCC4)ccc23)cc1, the viability, T/C was 87.6%.

As for `CC1COCCN1c1cc(C2(S(C)(=N)=O)CC2)nc(-c2ccnc3[nH]ccc23)n1` (stereo unspecified) + Cc1[nH]c2ccc(F)cc2c1-c1nc2c3cccnc3c3ncccc3c2[nH]1, the viability, T/C is 84.5%.

For `COc1ccc([C@@H](O)c2cc(-c3ncnc4cc(N5CCOCC5)ccc34)c(F)cc2Cl)nn1` + Cc1[nH]c2ccc(F)cc2c1-c1nc2c3cccnc3c3ncccc3c2[nH]1, the viability, T/C is 75.3%.

Staying with this assay, now noted: second compound 0.316 µM; first compound 10 µM; hits give low values.
On to `C=CCn1c(=O)c2cnc(Nc3ccc(N4CCN(C)CC4)cc3)nc2n1-c1cccc(C(C)(C)O)n1` + CN(C)c1ccc(Nc2c3ccc(NC(=O)CCN4CCCC4)cc3nc3cc(NC(=O)CCN4CCCC4)ccc23)cc1, for which the viability, T/C is 16.1%.

With `CC(C)(O)C1CCC(Nc2ccc3ncc(-c4cccc(C(F)(F)F)c4)n3n2)CC1` (stereo unspecified) + CN(C)c1ccc(Nc2c3ccc(NC(=O)CCN4CCCC4)cc3nc3cc(NC(=O)CCN4CCCC4)ccc23)cc1, the viability, T/C was 29.8%.

Consider `COc1ncnc(C2CC2)c1-c1ncc2cnn(Cc3ccc(-c4nc(C(F)(F)F)cn4C(C)C)cc3)c2n1` + CN(C)c1ccc(Nc2c3ccc(NC(=O)CCN4CCCC4)cc3nc3cc(NC(=O)CCN4CCCC4)ccc23)cc1, for which the viability, T/C was 77.8%.

Turning to `CC1COCCN1c1cc(C2(S(C)(=N)=O)CC2)nc(-c2ccnc3[nH]ccc23)n1` (stereo unspecified) + Cc1[nH]c2ccc(F)cc2c1-c1nc2c3cccnc3c3ncccc3c2[nH]1, the viability, T/C is 49.6%.

Regarding `COc1ccc([C@@H](O)c2cc(-c3ncnc4cc(N5CCOCC5)ccc34)c(F)cc2Cl)nn1` + Cc1[nH]c2ccc(F)cc2c1-c1nc2c3cccnc3c3ncccc3c2[nH]1, the viability, T/C was 60.6%.

Still in this assay, the particulars now being: second compound 1 µM; first compound 0.0316 µM; hits give low values.
In the case of `C=CCn1c(=O)c2cnc(Nc3ccc(N4CCN(C)CC4)cc3)nc2n1-c1cccc(C(C)(C)O)n1` + CN(C)c1ccc(Nc2c3ccc(NC(=O)CCN4CCCC4)cc3nc3cc(NC(=O)CCN4CCCC4)ccc23)cc1, the viability, T/C is 85.2%.

Consider `CC(C)(O)C1CCC(Nc2ccc3ncc(-c4cccc(C(F)(F)F)c4)n3n2)CC1` (stereo unspecified) + CN(C)c1ccc(Nc2c3ccc(NC(=O)CCN4CCCC4)cc3nc3cc(NC(=O)CCN4CCCC4)ccc23)cc1, for which the viability, T/C is 94%.

As to `COc1ncnc(C2CC2)c1-c1ncc2cnn(Cc3ccc(-c4nc(C(F)(F)F)cn4C(C)C)cc3)c2n1` + CN(C)c1ccc(Nc2c3ccc(NC(=O)CCN4CCCC4)cc3nc3cc(NC(=O)CCN4CCCC4)ccc23)cc1, the viability, T/C was 84.5%.

For the compound `CC1COCCN1c1cc(C2(S(C)(=N)=O)CC2)nc(-c2ccnc3[nH]ccc23)n1` (stereo unspecified) + Cc1[nH]c2ccc(F)cc2c1-c1nc2c3cccnc3c3ncccc3c2[nH]1, the viability, T/C is 100%.

For `COc1ccc([C@@H](O)c2cc(-c3ncnc4cc(N5CCOCC5)ccc34)c(F)cc2Cl)nn1` + Cc1[nH]c2ccc(F)cc2c1-c1nc2c3cccnc3c3ncccc3c2[nH]1, the viability, T/C is 86.5%.

The same assay, now with this note: second compound 1 µM; first compound 0.1 µM; hits give low values.
Turning to `C=CCn1c(=O)c2cnc(Nc3ccc(N4CCN(C)CC4)cc3)nc2n1-c1cccc(C(C)(C)O)n1` + CN(C)c1ccc(Nc2c3ccc(NC(=O)CCN4CCCC4)cc3nc3cc(NC(=O)CCN4CCCC4)ccc23)cc1, the viability, T/C is 90.9%.

For `CC(C)(O)C1CCC(Nc2ccc3ncc(-c4cccc(C(F)(F)F)c4)n3n2)CC1` (stereo unspecified) + CN(C)c1ccc(Nc2c3ccc(NC(=O)CCN4CCCC4)cc3nc3cc(NC(=O)CCN4CCCC4)ccc23)cc1, the viability, T/C was 75.4%.

In the case of `COc1ncnc(C2CC2)c1-c1ncc2cnn(Cc3ccc(-c4nc(C(F)(F)F)cn4C(C)C)cc3)c2n1` + CN(C)c1ccc(Nc2c3ccc(NC(=O)CCN4CCCC4)cc3nc3cc(NC(=O)CCN4CCCC4)ccc23)cc1, the viability, T/C was 83.4%.

Regarding `CC1COCCN1c1cc(C2(S(C)(=N)=O)CC2)nc(-c2ccnc3[nH]ccc23)n1` (stereo unspecified) + Cc1[nH]c2ccc(F)cc2c1-c1nc2c3cccnc3c3ncccc3c2[nH]1, the viability, T/C was 81.4%.

Regarding `COc1ccc([C@@H](O)c2cc(-c3ncnc4cc(N5CCOCC5)ccc34)c(F)cc2Cl)nn1` + Cc1[nH]c2ccc(F)cc2c1-c1nc2c3cccnc3c3ncccc3c2[nH]1, the viability, T/C is 88.5%.

Staying with this assay, now noted: second compound 1 µM; first compound 0.316 µM; hits give low values.
As for `C=CCn1c(=O)c2cnc(Nc3ccc(N4CCN(C)CC4)cc3)nc2n1-c1cccc(C(C)(C)O)n1` + CN(C)c1ccc(Nc2c3ccc(NC(=O)CCN4CCCC4)cc3nc3cc(NC(=O)CCN4CCCC4)ccc23)cc1, the viability, T/C is 94.2%.
